Reference: patent US11795147B2, “Modulators of complex I” (Boehringer Ingelheim International GmbH, priority 2019, dated 2023)

What follows are molecules tested on HT-22 cells (assay: not given). Details: Mus musculus, HT-22, 16 h, read-out: HT22 IC50.
Type: cell-based, mice

Structure (SMILES)	IC50 [µM]
CN1CCC(N2C(=O)/C(=C3/CCCN3)c3cc(N(C)C)ccc32)CC1 [Compound 109]	0.16
CC(C)Nc1ccc2c(c1)/C(=C1\COCCN1)C(=O)N2C1CCN(C(C)C)CC1 [Compound 92]	0.044
Nc1ccc2c(c1)/C(=C1/NCCN(C(=O)OCc3ccccc3)C1O)C(=O)N2C1CCNCC1 (stereo not shown) [Compound 87]	1
CCOC(=O)N1CCC(N2C(=O)/C(=C3/COCCN3)c3cc(N4C(C)CCC4C)ccc32)CC1 (stereo not shown) [Compound 11]	0.038

Same assay, conditions: Mus musculus; protection of HT-22 cells from glutamate (5 mM) induced cell death, 16 hours, Alamar Blue viability; read-out: HT22 IC50

Structure (SMILES)	IC50 [µM]
CC(C)Nc1ccc2c(c1)/C(=C1\CN(C3CCOCC3)CCN1)C(=O)N2C1CCOCC1 [Compound 24]	0.123

These molecules were tested against Complex I (assay: Assay A: Determination of Complex I mediated ROS-inhibition (CI)). Details: read-out: CI IC50; ROS generation by Complex I purified from bovine heart, Amplex Red/horse radish peroxidase readout, 8 point concentration-response.
Type: biochemical

Structure (SMILES)	IC50 [µM]
O=C1/C(=C2/COCCN2)c2cc(NC3CCOC3)ccc2N1C1CCOC1 (stereo not shown) [Compound 168]	0.041
CC(Nc1ccc2c(c1)/C(=C1\COCCN1)C(=O)N2C(C)C)c1nccs1 (stereo not shown) [Compound 144]	0.049
CC(=O)N1CCC2(CC1)CN/C(=C1\C(=O)N(C(C)C)c3ccc(NC(C)C)cc31)CO2 [Compound 34]	0.048
CC(C)Nc1ccc2c(c1)C(=C1CCOCC1)C(=O)N2C(C)C [Compound 47]	0.153
CC(Nc1ccc2c(c1)/C(=C1\COCCN1)C(=O)N2C1CCOCC1)C1CCCC1 (stereo not shown) [Compound 61]	0.343
CCC(CC)Nc1ccc2c(c1)/C(=C1\COCCN1)C(=O)N2C1COC1 [Compound 136]	0.213
CN1C(=O)/C(=C2/CCN(C(=O)OCc3ccccc3)CCN2)c2cc(N3CCCC3)ccc21 [Compound 152]	0.477
CN1C(=O)/C(=C2/COCCN2)c2cc(NC3CCC3)ccc21 [Compound 154]	0.193
CC(C)N1CCC(Nc2ccc3c(c2)/C(=C2\COCCN2)C(=O)N3C2CCOCC2)CC1 [Compound 19]	0.022
CC(C)Nc1ccc2c(c1)/C(=C1\CN(C(C)C)CCN1)C(=O)N2C(C)C [Compound 88]	0.068
CC(C)Nc1ccc2c(c1)/C(=C1\CCOCCN1)C(=O)N2C(C)C [Compound 82]	0.091
CC(Nc1ccc2c(c1)/C(=C1\COCCN1)C(=O)N2C1CCOCC1)c1cncnc1 (stereo not shown) [Compound 147]	0.069
CC(C)N1C(=O)/C(=C2/CCOCCN2)c2cc(N3C(C)CCC3C)ccc21 (stereo not shown) [Compound 128]	0.044
O=C1/C(=C2/CCOCCN2)c2cc(NC3CCCC3)ccc2N1C1CCOCC1 [Compound 13]	0.084
O=C1/C(=C2/COCCN2)c2cc(NC3CCC3)ccc2N1C1COC1 [Compound 51]	0.135
CC(C)N1C(=O)/C(=C2/COCCN2)c2cc(NC3COC3)ccc21 [Compound 98]	0.187
CC(=O)N1CCC(Nc2ccc3c(c2)/C(=C2\COCCN2)C(=O)N3C(C)C)CC1 [Compound 172]	0.078
CN(C)c1ccc2c(c1)/C(=C1\CCCCCN1)C(=O)N2C [Compound 105]	0.064
CC(Nc1ccc2c(c1)/C(=C1\COCCN1)C(=O)N2C(C)C)C1CCCC1 (stereo not shown) [Compound 56]	0.159
CC(C)N1C(=O)/C(=C2/COCCN2)c2cc(NCC3CCOC3)ccc21 (stereo not shown) [Compound 39]	0.067
CC(=O)N1CCN/C(=C2\C(=O)N(C3CCOCC3)c3ccc(NC(C)C)cc32)C1 [Compound 111]	0.119
CCC(CC)Nc1ccc2c(c1)/C(=C1\COCCN1)C(=O)N2C(C)C [Compound 171]	0.206
CC(C)Nc1ccc2c(c1)/C(=C1\COCCN1)C(=O)N2[C@H]1CCN(C2COC2)C1 [Compound 69]	0.055
CC(Nc1ccc2c(c1)/C(=C1\COCCN1)C(=O)N2C(C)C)C1CC1 (stereo not shown) [Compound 97]	0.344
CN(C)c1ccc2c(c1)C(=C1NCC3(CCCCC3)CN1)C(=O)N2C [Compound 104]	0.704

Structure (SMILES)	IC50 [µM]
O=C1/C(=C2/COCCN2)c2cc(NC3CCOCC3F)ccc2N1C1CCOCC1 (stereo not shown) [Compound 80]	0.084
CN1CCC(Nc2ccc3c(c2)/C(=C2\COCCN2)C(=O)N3C2CCOCC2)CC1 [Compound 150]	0.048
CN1C(=O)/C(=C2/CCN(C3CCOC3)CCN2)c2cc(N3CCCC3)ccc21 (stereo not shown) [Compound 155]	0.264
CC(C)Nc1ccc2c(c1)/C(=C1\CCCCN1)C(=O)N2C(C)C [Compound 133]	0.049
CC(Nc1ccc2c(c1)/C(=C1\COCCN1)C(=O)N2C1CCOCC1)c1cnccn1 (stereo not shown) [Compound 146]	0.066
CN(C)c1ccc2c(c1)/C(=C1\CCCN1)C(=O)N2C [Compound 1]	0.06
CC(C)N1C(=O)/C(=C2/COCCN2)c2cc(NCC3CCOCC3)ccc21 [Compound 75]	0.072
CC(C)Nc1ccc2c(c1)/C(=C1\COCCN1)C(=O)N2[C@H]1CCN(C(C)C)C1 [Compound 31]	0.081
O=C1/C(=C2/CC3(CN2)COC3)c2cc(NC3CCOC3)ccc2N1C1CCOCC1 (stereo not shown) [Compound 70]	0.193
CC(C)N1CCC2(CC1)CN/C(=C1\C(=O)N(C(C)C)c3ccc(N4CCCC4)cc31)CO2 [Compound 91]	0.242
CC1CCN(c2ccc3c(c2)/C(=C2\COCCN2)C(=O)N3C2CCOCC2)CC1 [Compound 85]	0.069
CC(C)N1C(=O)/C(=C2/COCCN2)c2cc(NC3CCC(F)(F)CC3)ccc21 [Compound 72]	0.14
CC(C)Nc1ccc2c(c1)C(=C1CCOCC1)C(=O)N2C1CCOCC1 [Compound 6]	0.533
COC1COCCC1Nc1ccc2c(c1)/C(=C1\COCCN1)C(=O)N2C(C)C (stereo not shown) [Compound 16]	0.313
O=C1/C(=C2/CCOCCN2)c2cc(NC3CCOC3)ccc2N1C1CCOCC1 (stereo not shown) [Compound 140]	0.084
CC(C)Nc1ccc2c(c1)/C(=C1\CN(C3CCOCC3)CCN1)C(=O)N2C(C)C [Compound 134]	0.062
CC(C)N1CCN/C(=C2\C(=O)N(C)c3ccc(N4CCCC4)cc32)C1 [Compound 23]	0.137
O=C1/C(=C2/COCCN2)c2cc(NC3CCC3)ccc2N1C1CCOCC1 [Compound 132]	0.055
CC(Nc1ccc2c(c1)/C(=C1\COCCN1)C(=O)N2C1CCOCC1)c1ccnn1C (stereo not shown) [Compound 79]	0.02
CC(=O)N1CCN/C(=C2\C(=O)N(C(C)C)c3ccc(NC(C)C)cc32)C1 [Compound 159]	0.12
O=C1/C(=C2/COCCN2)c2cc(NCC3CCOCC3)ccc2N1C1CCOCC1 [Compound 81]	0.13
O=C1/C(=C2/COCCN2)c2cc(NC3CCCC3)ccc2N1C1CCOCC1 [Compound 60]	0.245
CC(C)Nc1ccc2c(c1)/C(=C1\CCCN1C)C(=O)N2C1CCOCC1 [Compound 48]	0.122
CN(C)c1ccc2c(c1)/C(=C1\CCCCN1)C(=O)N2C [Compound 62]	0.081
CC1CCC(C)N1c1ccc2c(c1)/C(=C1\CCOCCN1)C(=O)N2C1CCOCC1 (stereo not shown) [Compound 29]	0.132

Structure (SMILES)	IC50 [µM]
O=C1/C(=C2/COCCN2)c2cc(NCc3cc[nH]n3)ccc2N1C1CCOCC1 [Compound 21]	0.108
CC(Nc1ccc2c(c1)/C(=C1\COCCN1)C(=O)N2C(C)C)C1CCC1 (stereo not shown) [Compound 37]	0.405
CC(=O)N1CC[C@H](N2C(=O)/C(=C3/COCCN3)c3cc(NC(C)C)ccc32)C1 [Compound 170]	0.023
CC(Nc1ccc2c(c1)/C(=C1\COCCN1)C(=O)N2C1CCOCC1)c1cccnc1 (stereo not shown) [Compound 100]	0.034
COCC(C)N1C(=O)/C(=C2/COCCN2)c2cc(NC(C)C)ccc21 (stereo not shown) [Compound 28]	0.069
Nc1ccc2c(c1)/C(=C1\COCCN1)C(=O)N2C1CCOCC1 [Compound 35]	0.083
CC(C)Nc1ccc2c(c1)/C(=C1\CN(C3COC3)CCN1)C(=O)N2C(C)C [Compound 114]	0.058
CC(C)C(C)Nc1ccc2c(c1)/C(=C1\COCCN1)C(=O)N2C(C)C (stereo not shown) [Compound 95]	0.151
CC(C)Nc1ccc2c(c1)/C(=C1\CC3(CN1)COC3)C(=O)N2C1CCOCC1 [Compound 165]	0.181
CC1OCCC1Nc1ccc2c(c1)/C(=C1\COCCN1)C(=O)N2C1CCOCC1 (stereo not shown) [Compound 174]	0.039
O=C1/C(=C2/COCCN2)c2cc(NC3CCCC3)ccc2N1C1COC1 [Compound 65]	0.194
O=C1C(=C2CCOCC2)c2cc(N3CCCC3)ccc2N1C1CCOCC1 [Compound 112]	0.352
CC(C)N1C(=O)C(=C2CCOCC2)c2cc(N3CCCC3)ccc21 [Compound 7]	0.35
O=C1/C(=C2/COCCN2)c2cc(NC3CCCC3)ccc2N1C1COCCOC1 [Compound 50]	0.195
O=C(CCO)Nc1ccc2c(c1)/C(=C1\COCCN1)C(=O)N2C1CCOC1 (stereo not shown) [Compound 169]	0.944
COCC(C)Nc1ccc2c(c1)/C(=C1\COCCN1)C(=O)N2C1CCOCC1 (stereo not shown) [Compound 99]	0.451
CC(C)N1C(=O)/C(=C2/COCCN2)c2cc(NC3CCN(C)CC3)ccc21 [Compound 38]	0.051
CC1OCCC1Nc1ccc2c(c1)/C(=C1\COCCN1)C(=O)N2C(C)C (stereo not shown) [Compound 125]	0.05
CC(Nc1ccc2c(c1)/C(=C1\COCCN1)C(=O)N2C(C)C)c1cnccn1 (stereo not shown) [Compound 57]	0.073
CC(C)Nc1ccc2c(c1)/C(=C1\CN(C3CCOCC3)CCN1)C(=O)N2C1CCOCC1 [Compound 24]	0.048
CC1CCC(C)N1c1ccc2c(c1)/C(=C1\COCCCN1)C(=O)N2C1CCOCC1 (stereo not shown) [Compound 142]	0.116
COCC(C)Nc1ccc2c(c1)/C(=C1\COCCN1)C(=O)N2C1COC1 (stereo not shown) [Compound 137]	0.138
CC(C)CNc1ccc2c(c1)/C(=C1\COCCN1)C(=O)N2C(C)C [Compound 173]	0.367
CC(C)N1C(=O)/C(=C2/CCCCN2)c2cc(N3CCOCC3)ccc21 [Compound 158]	0.243
